According to ChEMBL document CHEMBL4665871, “Small-molecule active pharmaceutical ingredients of approved cancer therapeutics inhibit human aspartate/asparagine-β-hydroxylase” (Bioorg Med Chem, 2020):
pIC50: −log10 of the molar value.

What was measured:
[1] = target: T1, Aspartyl/asparaginyl beta-hydroxylase (Homo sapiens, UniProt Q12797); assay: Inhibition of N-His6-tagged human AspH (315-755) expressed in Escherichia coli BL21 (DE3) using 1 uM hFX-CP as substrate mixture with high 200 uM 2OG, 100 uM L-ascorbic acid and 2 uM FAS incubated for 35 mins by MS analysis
T1 sequence (Q12797 whole entry): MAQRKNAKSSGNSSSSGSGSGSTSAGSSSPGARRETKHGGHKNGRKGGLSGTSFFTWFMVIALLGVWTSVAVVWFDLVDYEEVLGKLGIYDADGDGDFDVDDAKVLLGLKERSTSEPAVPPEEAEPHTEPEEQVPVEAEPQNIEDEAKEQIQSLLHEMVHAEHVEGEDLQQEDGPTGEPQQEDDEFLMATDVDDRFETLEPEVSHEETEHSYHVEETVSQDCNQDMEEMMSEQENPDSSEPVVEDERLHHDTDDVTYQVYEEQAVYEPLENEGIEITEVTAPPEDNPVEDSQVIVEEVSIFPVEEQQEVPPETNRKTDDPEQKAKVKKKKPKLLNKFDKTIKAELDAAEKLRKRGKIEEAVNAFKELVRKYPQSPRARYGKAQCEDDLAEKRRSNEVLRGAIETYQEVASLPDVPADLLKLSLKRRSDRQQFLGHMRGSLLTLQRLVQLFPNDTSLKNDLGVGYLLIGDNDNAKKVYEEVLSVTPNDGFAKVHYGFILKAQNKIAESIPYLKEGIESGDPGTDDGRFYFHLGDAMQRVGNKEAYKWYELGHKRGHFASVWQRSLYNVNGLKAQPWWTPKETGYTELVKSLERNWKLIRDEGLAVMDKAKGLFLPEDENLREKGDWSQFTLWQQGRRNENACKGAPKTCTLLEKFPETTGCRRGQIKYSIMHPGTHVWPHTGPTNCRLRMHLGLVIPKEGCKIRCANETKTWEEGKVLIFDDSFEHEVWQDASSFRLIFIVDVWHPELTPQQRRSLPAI

[2] = target: T1, Aspartyl/asparaginyl beta-hydroxylase; assay: Inhibition of N-His6-tagged human AspH (315-755) expressed in Escherichia coli BL21 (DE3) using 1 uM hFX-CP as substrate mixture with 3 uM 2OG, 100 uM L-ascorbic acid and high 20 uM FAS incubated for 35 mins by MS analysis
[3] = target: T1, Aspartyl/asparaginyl beta-hydroxylase; assay: Inhibition of N-His6-tagged human AspH (315-755) expressed in Escherichia coli BL21 (DE3) using high 10 uM hFX-CP as substrate mixture with 10 uM 2OG, 100 uM L-ascorbic acid and 2 uM FAS incubated for 35 mins by MS analysis

In the case of CO[C@H](C(=O)[C@@H](O)[C@@H](C)O)[C@@H]1Cc2cc3cc(O[C@H]4C[C@@H](O[C@H]5C[C@@H](O)[C@H](O)[C@@H](C)O5)[C@H](O)[C@@H](C)O4)c(C)c(O)c3c(O)c2C(=O)[C@H]1O[C@H]1C[C@@H](O[C@H]2C[C@@H](O[C@H]3C[C@](C)(O)[C@H](O)[C@@H](C)O3)[C@@H](O)[C@@H](C)O2)[C@H](O)[C@@H](C)O1, the pIC50 [1] was 4.91, the IC50 [2] was “Not Active” and the pIC50 [3] was 5.47.
